Several values for one entry are separate records, joined by “and”; a condition that tells them apart may be missing. Identical values can stand only once.
Legend:
[1] = tested on: odorranalectin-mediated erythrocytes hemagglutination; assay: Hemagglutination-inhibition test; type: cell-based, rabbit; settings: for MIC, minimum concentration to inhibit odorranalectin-mediated erythrocytes hemagglutination: inhibition of four hemagglutination doses of odorranalectin
Experimental: Intact, pronase-treated, trypsin-treated, and formaldehyde-treated rabbit erythrocytes were prepared. Assays were carried out in U-well microtiter plates (96 wells) as described previously [21]–[23]. The details are provided in the supplementary materials (Materials and Methods S1).
Inhibition was expressed as the minimum concentration of each sugar or glycoprotein required for inhibition of hemagglutination of titer 4 of the lectin.

[2] = target: immobilized odorranalectin (Odorrana grahami, UniProt B3TFE9); assay: SPR, analytes on immobilized odorranalectin; type: binding
Experimental: Real time detection of odorranalectin and its mutants binding to glycoproteins and L-fucose was recorded by using a Biacore 3000 [21]–[24]. The details are provided in the supplementary materials (Materials and Methods S1).
SPR Analysis. Real time detection of odorranalectin and its mutants binding to glycoproteins and L-fucose was recorded by using a Biacore 3000 [21-24]. Odorranalectin was immobilized covalently via their primary amines to carboxyl groups within a dextran layer on the sensor chip CM-5 according to the manufacturer’s specifications. After chip activation with 0.4 M 1-ethyl-3- (3-dimethylaminopropyl) carbodiimide hydrochloride and 10 mM N-hydroxysuccinimide, odorranalectin or its mutants (in 10 mM sodium acetate buffer, pH 4.0) at a concentration of 100 μg/ml was passed through the flow cells at a rate of 5 μl/min. After immobilization, the chip was capped by exposure to 1 M ethanolamine (pH 8.5).
All analyses were performed at a flow rate of 30 μl/min. Before loading of analytes, the chip was equilibrated with 10 mM HEPES-buffered saline containing 3 mM EDTA and 0.005% surfactant P-20, pH 7.4 (HBS-EP). Each analyte at various concentrations in the same buffer was injected over the immobilized ligand for 4 min. After injection of the analyte, HBS-EP was introduced onto the sensor surface to start dissociation, and dissociation data were collected for 5 min. The chip was regenerated by injection of 5μl of 10 mM HCl or NaOH, followed by HBS-EP.
Association and dissociation rate constants (ka and kd) were calculated by using BIA evaluation 4.0 software (Biacore AB, Sweden). The affinity constant (KD) was calculated from the ka and kd. For the calculation of rate constants, samples were appropriately diluted in HBS-EP at various concentrations.

[3] = SPR Biacore 3000, CM-5 chip, HBS-EP pH 7.4, 1:1 binding model

For OC1OC[C@@H](O)[C@@H](O)[C@@H]1O (stereo partly drawn) [D(+)-arabinose], the “MIC, minimum concentration to inhibit odorranalectin-mediated erythrocytes hemagglutination” value ([1]; sugars) was greater than 200 mM.
For OC1COC(O)C(O)C1O (stereo not drawn) [D(+)-xylose], the “MIC, minimum concentration to inhibit odorranalectin-mediated erythrocytes hemagglutination” value ([1]; sugars) was greater than 200 mM.
OC[C@@H](O)[C@H](O)[C@H](O)[C@@H](O)CO [dulcitol] was tested, and the “MIC, minimum concentration to inhibit odorranalectin-mediated erythrocytes hemagglutination” value ([1]; sugars) was greater than 200 mM.
For OC[C@H]1O[C@H](O[C@H]2O[C@H](CO)[C@@H](O)[C@H](O)[C@H]2O)[C@H](O)[C@@H](O)[C@@H]1O [D-trehalose], the “MIC, minimum concentration to inhibit odorranalectin-mediated erythrocytes hemagglutination” value ([1]; sugars) was greater than 200 mM.
For OC[C@H]1OC(O)[C@H](O)[C@@H](O)[C@H]1O (stereo partly drawn) [D(+)-galactose], the “MIC, minimum concentration to inhibit odorranalectin-mediated erythrocytes hemagglutination” value ([1]; sugars) was greater than 200 mM.
C[C@@H]1O[C@@H](O)[C@H](O)[C@H](O)[C@H]1O.O [L(+)-rhamnose monohydrate] was tested, and the “MIC, minimum concentration to inhibit odorranalectin-mediated erythrocytes hemagglutination” value ([1]; sugars) was greater than 200 mM.
For inulin, the “MIC, minimum concentration to inhibit odorranalectin-mediated erythrocytes hemagglutination” value ([1]; sugars) was greater than 200 mM.
For CC(=O)N[C@@H]1[C@@H](O)[C@@H](O)[C@@H](CO)O[C@@H]1O [N-acetylgalactosamine], the “MIC, minimum concentration to inhibit odorranalectin-mediated erythrocytes hemagglutination” value ([1]; sugars) was greater than 200 mM.
In the case of “Fetuin: glycoprotein used as analyte and inhibitor”, the “Inhibition of the hemagglutinating activity of odorranalectin by glycoproteins (in words)” value [1] is reported as “most effective inhibitor”, the “MIC, minimum concentration to inhibit odorranalectin-mediated erythrocytes hemagglutination” value ([1]; glycoproteins) is reported as 15.63 µg/mL and 15.6 µg/mL and the ka [2, 3] is reported as 2890 M⁻¹ s⁻¹. It also gave a kd [2, 3] of 0.00061 s⁻¹.
In the case of CC(=O)N[C@@H]1C(O)O[C@H](CO)[C@@H](O)[C@@H]1O (stereo partly drawn) [N-acetyl-D-mannosamine], the “MIC, minimum concentration to inhibit odorranalectin-mediated erythrocytes hemagglutination” value ([1]; sugars) is reported as greater than 200 mM.
With O.OC[C@H]1O[C@@](CO)(O[C@H]2O[C@H](CO)[C@@H](O)[C@H](O)[C@H]2O)[C@@H](O[C@H]2O[C@H](CO)[C@@H](O)[C@H](O)[C@H]2O)[C@@H]1O [D(+)-melezitose monohydrate] the “MIC, minimum concentration to inhibit odorranalectin-mediated erythrocytes hemagglutination” value ([1]; sugars) was greater than 200 mM.
OC[C@H]1OC(O)[C@H](O)[C@@H](O)[C@@H]1O (stereo partly drawn) [D-glucose] was tested, and the “MIC, minimum concentration to inhibit odorranalectin-mediated erythrocytes hemagglutination” value ([1]; sugars) was greater than 200 mM.
For O=C(O)[C@H]1OC(O)[C@H](O)[C@@H](O)[C@H]1O (stereo partly drawn) [D(+)-galacturonic acid], the “MIC, minimum concentration to inhibit odorranalectin-mediated erythrocytes hemagglutination” value ([1]; sugars) was greater than 200 mM.
For OC[C@H]1O[C@@H](Oc2c[nH]c3ccc(Br)c(Cl)c23)[C@H](O)[C@@H](O)[C@H]1O [5-bromo-4-chloro-3-indoxyl-β-D-galactopyranoside], the “MIC, minimum concentration to inhibit odorranalectin-mediated erythrocytes hemagglutination” value ([1]; sugars) was greater than 200 mM.
With O=C(CO)N[C@H]1[C@H]([C@H](O)[C@H](O)CO)OC(O)(C(=O)O)C[C@@H]1O (stereo partly shown) [N-glycolylneuraminc acid] the “MIC, minimum concentration to inhibit odorranalectin-mediated erythrocytes hemagglutination” value ([1]; sugars) was greater than 200 mM.
“Transferrin: glycoprotein used as analyte” was tested, and the “Inhibition of the hemagglutinating activity of odorranalectin by glycoproteins (in words)” value [1] was “All the glycoproteins except transferrin could inhibit” and the “Binding to immobilized odorranalectin (in words)” value ([2]; SPR) was “did not bind”.
O=[N+]([O-])c1ccccc1O[C@@H]1O[C@H](CO)[C@H](O)[C@H](O)[C@H]1O [2-nitrophenyl-β-D-galactopyranoside] was tested, and the “MIC, minimum concentration to inhibit odorranalectin-mediated erythrocytes hemagglutination” value ([1]; sugars) was greater than 200 mM.
In the case of OC[C@H]1O[C@@H](O[C@H]2[C@H](O)[C@@H](O)[C@H](O)O[C@@H]2CO)[C@H](O)[C@@H](O)[C@@H]1O [D(+)-cellobiose], the “MIC, minimum concentration to inhibit odorranalectin-mediated erythrocytes hemagglutination” value ([1]; sugars) is reported as greater than 200 mM.
For CC(C)S[C@@H]1O[C@H](CO)[C@H](O)[C@H](O)[C@H]1O [isopropy-β-D-thiogalactoside], the “MIC, minimum concentration to inhibit odorranalectin-mediated erythrocytes hemagglutination” value ([1]; sugars) was greater than 200 mM.
O.O.O.O.O.OC[C@H]1O[C@H](OC[C@H]2O[C@H](O[C@]3(CO)O[C@H](CO)[C@@H](O)[C@@H]3O)[C@H](O)[C@@H](O)[C@@H]2O)[C@H](O)[C@@H](O)[C@H]1O [D(+)-raffinose pentahydrate] was tested, and the “MIC, minimum concentration to inhibit odorranalectin-mediated erythrocytes hemagglutination” value ([1]; sugars) was greater than 200 mM.
For heparin, the “MIC, minimum concentration to inhibit odorranalectin-mediated erythrocytes hemagglutination” value ([1]; sugars) was greater than 200 mM.
C[C@H](O)[C@@H](O)[C@@H](O)[C@H](O)C=O [L-fucose, reference compound] gave a minimal effective concentration ([1]; Oryctolagus cuniculus, Erythrocyte, read-out: MIC, minimum concentration to inhibit odorranalectin-mediated erythrocytes hemagglutination) of 12500 µM, a Kd ([2]; SPR Biacore 3000, CM-5 chip, HBS-EP pH 7.4, calculated from ka and kd) of 54.7 µM and a kon ([2]; pH 7.4, read-out: ka) of 159 M⁻¹ s⁻¹. It also gave a koff ([2]; pH 7.4, read-out: kd) of 0.00867 s⁻¹.
With D(+)-maltose monohydrate the “MIC, minimum concentration to inhibit odorranalectin-mediated erythrocytes hemagglutination” value ([1]; sugars) was greater than 200 mM.
With O=C(CO)[C@H](O)[C@@H](O)[C@H](O)CO [D-sorbose] the “MIC, minimum concentration to inhibit odorranalectin-mediated erythrocytes hemagglutination” value ([1]; sugars) was greater than 200 mM.
